Data on 3 compounds can be found in patent US12053459B2, “CDK2 inhibitors and methods of using the same” (Cedilla Therapeutics, Inc., priority 2021, dated 2024).

Conditions in all cases: class symbols A-D
The target in one assay is CDK2/Cyclin E1(14-475) (Homo sapiens, UniProt P24941). The assay is described as follows: Caliper LabChip EZ Reader mobility shift assay, inhibition of CDK2/Cyclin E1 activity. In kind it is biochemical. In a few lines: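 CDK2/Cyclin E1(14-475) pre-incubated 30 min with compound and ATP, then reaction started with 5-FAM-QSPKKG-CONH2; final 2.5 nM enzyme, 100 μM ATP, 1.5 μM peptide, HEPES pH 7.5. Stopped with EDTA after 100 min; substrate/product conversion by capillary electrophoresis mobility shift, IC50 from four-parameter fit.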

Assay [1] relates to Kuramochi cells. Briefly: BrdU cell proliferation assay (colorimetric ELISA), Kuramochi cells. In kind it is cell-based. In a few lines:
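Kuramochi cells (2,000/well, with Kuramochi RB^KO cells as a specificity control) were treated with a 4-point, 3-fold dilution series made from 10 mM compound stocks and left for 4 days at 37 °C. Proliferation was measured by 1 h BrdU labelling, then anti-BrdU peroxidase ELISA read at 450 nm. Signals were background-subtracted and normalized to DMSO wells.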
(In an ELISA, binding on a coated surface is turned into a signal by an enzyme label.)

Assay [2] concerns Kuramochi cells. Briefly: Incucyte cell proliferation assay, Kuramochi cells labeled with mApple-H2B. In kind it is cell-based. On the procedure:
Kuramochi cells labeled with mApple-H2B and Kuramochi RB1−/− cells labeled with NucLight green (Sartorius, 4475) were co-plated on 384-well assay-ready plates along with test compounds at varying concentrations. Plates were placed in the IncuCyte® Sartorius and scanned at 0 and 72 hours. IncuCyte® software was used to count the number of fluorescent nuclei in each well. The fold change in cell count from 0 to 72 hours in wells treated with increasing compounds concentrations (10 pts, ½ log dilution, 20 uM top concentration) was normalized to DMSO control wells. The normalized cell counts were fit with dose response curves and a GI50 was calculated.

Structures are written as SMILES.

`CNC(=O)[C@@H](NC(=O)C1CN(C(=O)Cc2c[nH]c3cc(Cl)ccc23)CC2CN(C(=O)c3ccc(OC(C)C)c(OC)c3)CC21)[C@H](C)OCc1ccccc1` (single isomer, unassigned) [I-147]: the concentration for half-maximal inhibition (IC50) on CDK2/Cyclin E1(14-475) and with Kuramochi cells [1] was > 10 µM throughout. In addition, in the assay with Kuramochi cells [2] (72 hours), the GI50 was > 20 µM.

For the compound `CNC(=O)[C@@H](NC(=O)C1CN(C(=O)Cc2c[nH]c3cc(Cl)ccc23)CC2CN(C(=O)c3ccc(OC(C)C)c(OC)c3)CC21)[C@H](C)OCc1ccccc1` (single isomer, unassigned) [I-148], the IC50 at CDK2/Cyclin E1(14-475) is 0.5 to 5 µM; with Kuramochi cells [1] it was > 10 µM. Besides, the GI50 in the assay with Kuramochi cells [2] (72 hours) was > 20 µM.

Regarding `CNC(=O)[C@@H](NC(=O)C1CN(C(=O)Cc2c[nH]c3cc(Cl)ccc23)CC2CN(C(=O)c3ccc(OC(C)C)c(OC)c3)CC21)[C@H](C)OCc1ccccc1` (stereo partly drawn) [I-106], the IC50 on CDK2/Cyclin E1(14-475) is ≤ 0.5 µM; in the assay on Kuramochi cells [1] it was 0.5 to 5 µM. The GI50 in the assay on Kuramochi cells [2] (72 h) is 1 to 10 µM.

A word on the IC50: it is the concentration that gives 50% inhibition. Broadly, the GI50 is the concentration that inhibits growth by half. High values mean lower sensitivity of the cells, low ones greater sensitivity of the cells.
